From US5101027A, “Synthesis of mannojirimycin derivatives” (Monsanto Company, priority 1990, dated 1992)

What was measured:
α-glucosidase = conditions: literature; cited from earlier work
α-Fucosidase = molecular target: T1, α-Fucosidase (Homo sapiens, UniProt P04066); assay: % inhibition of human liver α-fucosidase catalysed hydrolysis; format: biochemical
T1 construct: from tissue; host or cells: human liver
T1 sequence (P04066 32-466): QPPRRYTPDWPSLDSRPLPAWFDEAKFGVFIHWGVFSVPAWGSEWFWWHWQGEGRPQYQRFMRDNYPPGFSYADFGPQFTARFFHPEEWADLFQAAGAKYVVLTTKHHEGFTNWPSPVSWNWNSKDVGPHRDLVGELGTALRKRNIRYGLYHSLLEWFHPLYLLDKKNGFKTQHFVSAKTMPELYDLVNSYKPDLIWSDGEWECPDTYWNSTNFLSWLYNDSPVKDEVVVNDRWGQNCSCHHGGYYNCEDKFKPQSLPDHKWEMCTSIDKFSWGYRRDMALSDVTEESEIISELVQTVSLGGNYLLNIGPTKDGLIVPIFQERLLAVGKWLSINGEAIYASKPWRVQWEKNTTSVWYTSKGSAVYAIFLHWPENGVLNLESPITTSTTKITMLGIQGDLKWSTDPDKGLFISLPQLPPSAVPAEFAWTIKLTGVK
Procedure: % Inhibition of human liver α-fucosidase and α-mannosidase
catalysed hydrolysis of 4-umbelliferyl pyrranosides at
1 mM concentration of inhibitor

human α-mannosidases = assay: inhibition of human liver α-mannosidases (summary of lysosomal, Golgi II and neutral); format: biochemical; conditions: for specificity and potency of inhibition of human α-mannosidases, HMJ compared with DMJ: HMJ (6) vs DMJ (5)
Description: (§1) The relative potencies of these compounds as fucosidase inhibitors may be understood by considering them as analogues of α-L-fucose; all three compounds have the correct chirality of the secondary hydroxyl groups--the minimum requirement for inhibition of α-fucosidase. […] All the compounds are weaker inhibitors of α-fucosidase than is deoxyfuconojirimycin, since they all lack a lipophilic methyl substituent with correct configuration.

α-mannosidases = conditions: literature; cited from earlier work
β-mannosidase = assay: inhibition of human liver β-mannosidase; format: biochemical
Description: as §1

human liver α-fucosidase = conditions: literature; compared with deoxyfuconojirimycin (4); cited from earlier work

| Compound | inhibition of α-fucosidase (in words) (α-Fucosidase) | inhibition of β-mannosidase (in words) (β-mannosidase) | specificity and potency of inhibition of human α-mannosidases, HMJ compared with DMJ (human α-mannosidases) | other results |
| --- | --- | --- | --- | --- |
| OC[C@H]1N[C@H](CO[C@@H]2O[C@H](CO)[C@@H](O)[C@H](O)[C@H]2O)[C@H](O)[C@@H](O)[C@@H]1O [β-glucopyranosyl derivative (2)] |  |  |  | α-glucosidase inhibition (in words) (α-glucosidase): powerful α-glucosidase inhibitor |
| OC[C@@H]1N[C@H](CO)[C@@H](O)[C@@H](O)[C@@H]1O [6-Epi-homomannojirimycin (8), 2,6-dideoxy-2,6-imino-L-glycero-D-talo-heptitol] | powerful inhibitors of α-fucosidase |  |  | inhibition of α-mannosidases (in words) (human α-mannosidases): did not inhibit any α-mannosidase |
| OC[C@H]1NC[C@@H](O)[C@@H](O)[C@@H]1O [Deoxymannojirimycin (5), Deoxymannojirimycin] | powerful inhibitors of α-fucosidase | Neither compound inhibited β-mannosidase | very similar | inhibition of α-mannosidases in general (in words) (α-mannosidases): relatively weak inhibitor of α-mannosidases in general |
| C[C@@H]1N[C@H](CO)[C@@H](O)[C@H](O)[C@@H]1O [homofuconojirimycin (3), homofuconojirimycin] |  |  |  | inhibition of human liver α-fucosidase relative to deoxyfuconojirimycin (4) (human liver α-fucosidase): as powerful an inhibitor of human liver α-fucosidase as is deoxyfuconojirimycin (4) |
| OC[C@H]1N[C@H](CO)[C@@H](O)C(O)[C@@H]1O (stereo partly drawn) [Homomannojirimycin (6), 2,6-dideoxy-2,6-imino-D-glycero-D-talo-heptitol] | only a weak inhibitor of this enzyme | Neither compound inhibited β-mannosidase | very similar |  |
